# Patent publication US20210378193A1, “HAPLOID EMBRYOGENESIS” (STICHTING WAGENINGEN RESEARCH, priority 2013, published 2021)
# Key:
# [1] = system: B. napus DH12075 microspore culture; test: sporophytic cell division in B. napus DH12075 microspore culture (DAPI staining); assay type: cell-based, Brassica napus
# Procedure: Brassica napus L. DH12075 was used as a donor plant for microspore embryo culture. The B. napus plant growth and microspore isolation procedures were performed as described in Custers, J. B. M. (2003) “Microspore culture in rapeseed (Brassica napus L.)” in Doubled haploid production in crop plants: a manual, M. Maluszynski, K. J. Kasha, B. P. Forster, and I. Szarejko, eds (Dordrecht: Kluwer Academic Publishers), pp. 185-193. Flower buds for microspore culture were grouped by size (measured from the tip of the flower bud to the bottom of the sepal), ranging from 3.0 to 3.5 mm for DH4079 and from 2.6 to 4.0 mm for DH12075. The microspores were isolated and cultured in NLN-13 medium (see Lichter, R. (1982) […]. For induction of embryogenesis, microspores were cultured in the dark at 33° C. for 20 hours and subsequently transferred to 25° C. Non-induced microspore cultures were cultured continuously at 25° C. or 18° C. Trichostatin A (TSA, Sigma-Aldrich) was prepared in DMSO. Freshly isolated microspores were inoculated in a medium containing TSA or the same volume of DMSO as a control and cultured for 20 hours at the temperature indicated for each experiment. After this period, the cultures were centrifuged at 200 g for 3 min, resuspended in fresh NLN-13 medium without TSA, and transferred to 25° C.
# The developmental stage and identity of cells in microspore and anther culture were visualized with the nuclear stain 4′, 6-diamidino-2-phenylindole (DAPI, 1.25 μg/ml according to Custers (2003) supra using a Zeiss Axioskop epifluorescence microscope with a filter set no. 02. Approximately two hundred microspores or multicellular clusters were counted for each sample. GFP was imaged using confocal laser scanning microscopy (CLSM; Leica DM5500 Q). The GFP was excited with an argon laser line at 488 nm and detected with a 505-530 nm emission filter. Samples were counterstained with DAPI or propidium iodide (10 mg/ml; Sigma-Aldrich). Propidium iodide and red autofluorescence were excited at 532 nm and detected with a 620-660 nm emission filter. GFP and DAPI were covisualized with CLSM. For CLSM, DAPI was excited at 405 nm and detected with a 440-500 nm emission filter. The optical slices were median filtered with Leica LAS AF software. Arabidopsis anthers were cleared in HCG solution (water: Chloral hydrate: glycerol; 3:8:1) for 10 min, then observed under DIC microscopy with a Nikon OPTIPHOT microscope.
# Cultured microspores and pollen of B. napus genotype DH12075 were treated with the HDAC inhibitor TSA. We examined the development of microspore cultures by staining heat-stressed (hereafter referred to as control) and heat-stressed plus TSA-treated immature male gametophytes at different developmental stages with the nuclear dye, DAPI. Initial dosage experiments were used to establish the minimal exposure time (20 h) in relation to the specific phenotypes discussed below.
# The developmental fate of heat-stressed control cultures and cultures exposed to both heat-stress and TSA was followed by examining older cultures in more detail. […] Heat-stressed microspores and pollen were treated with a range of TSA concentrations, and the cultures examined after five and 15 days using DAPI staining to characterize the different multicellular structures that developed.
# histone H3 and H4 = test: Western blot of protein and histone acetylation in B. napus microspore cultures; assay type: cell-based, Brassica napus
# Procedure: Freshly isolated microspores and microspores cultured for 8 hours under different experimental conditions were harvested by centrifugation. Proteins were extracted by boiling in SDS-sample buffer (30 μl per ml of culture) and electrophoresed in a Midget 12.5% SDS-PAGE gel under reducing conditions. After transfer of the proteins to PVDF membrane and blocking with 5% milk powder in PBS, 0.1% Tween 20, the blots were incubated for 2 hours with primary antibody (1:2000 dilution). The primary antibodies used in this study are as follows: anti-acetyl-Lysine (ICP0380; ImmuneChem Pharmaceuticals), anti-Histone H3 (ab1791; Abcam), anti-Histone H4 (clone 62-141-13; Millipore), and anti-acetyl-Histone H3 and anti-acetyl-Histone H4 (Millipore). Secondary goat anti-rabbit-HRP antibody (Sigma) was used in a 1:2000 dilution, and signals were detected by using enhanced chemiluminescence (SuperSignal West Femto Chemiluminescent Substrate, Pierce). An acetylated lysine antibody was used in combination with protein gel blotting to identify proteins whose acetylation status changes in 8-hour heat-stress plus TSA-treated B. napus microspore cultures compared to heat-stressed control cultures. […] Panels show: (A)=Western blot of total acetylated proteins in microspore cultures treated for eight hours with DMSO (control) or TSA—proteins in the range of 10-25 kDa are differentially acetylated after TSA treatment compared to the control; (B)=Western blot of total and acetylated (Ac) histone H3 and H4 in microspore cultures treated for eight hours with DMSO (control) or TSA. The percentages of sporophytic divisions in the different cultures at day 5 are shown under each sample. […] The acetylation status of histones H3 and H4 was determined during microspore culture using acetylated histone H3 (Ac-H3) and H4 (Ac-H4) antibodies. Microspore cultures were started from buds containing mostly binucleate pollen and placed for eight hours at either 18° C. or 33° C. with or without 0.5 μM TSA. […] (FIG. 8B).
# [2] = system: Capsicum annuum microspore cultures; test: Capsicum annuum microspore culture, embryogenic microspores and embryos per bud; assay type: cell-based; conditions: TSA during the first 20 hours
# Procedure: Microspore cultures were performed accordingto Kim M, Jang 1-C, Kim J-A, Park E-J, Yoon M, Lee Y (2008) “Embryogenesis and plant regeneration of hot pepper (Capsicum annuum L.) through isolated microspore culture”: Plant Cell Rep 27 (3):425-434. Flower buds containing vacuolate microspores were selected according to Parra-Vega V, Gonzalez-Garcia B, Segui-Simarro J M (2013) “Morphological markers to correlate bud and anther development with microsporogenesis and microgametogenesis in pepper (Capsicum annuum L.)”: Acta Physiol Plant 35 (2):627-633. Except for “Control” and “DMSO,” the microspores were exposed to TSA (diluted in DMSO) during the first 20 hours of culture.
# Cultures were performed according to Kim M, Jang 1-C, Kim J-A, Park E-J, Yoon M, Lee Y (2008) “Embryogenesis and plant regeneration of hot pepper (Capsicum annuum L.) through isolated microspore culture”; Plant Cell Rep 27 (3):425-434. Flower buds containing […] microspores were selected according to Parra-Vega V, Gonzalez-Garcia B, Segui-Simarro JM (2013) “Morphological markers to correlate bud and anther development with microsporogenesis and microgametogenesis in pepper (Capsicum annuum L.)”: Acta Physiol Plant 35 (2):627-633. Except for “Control” and “DMSO,” the microspores were exposed to TSA (diluted in DMSO) during the first 20 hours of culture.
structure (smiles),measurement,setting,value
"CC(/C=C/C(=O)NO)=C\[C@@H](C)C(=O)c1ccc(N(C)C)cc1 [TSA, trichostatin A]",effect of duration of TSA treatment on proportion of sporophytic divisions,"[1]; 0.5 μM TSA, 33° C., treatment longer than 20 hours, counted after five days",did not further enhance or reduce
same,proportion of the population dividing sporophytically,"[1]; heat stress plus 0.5 μM TSA, after two days of culture",up to 80%
same,sporophytically-divided cells also containing one or more generative-like nuclei,"[1]; heat stress plus 0.5 μM TSA, two days of culture",approximately 10%
same,Type IV (loose callus-like) structures,"[1]; heat-stress and TSA, five-day-old cultures, control 0.5%",up to 32%
same,Type II (compact callus-like) structures,"[1]; heat-stress and TSA, five-day-old cultures, control 7%",up to 77%
same,Type I classical embryogenic structures,"[1]; heat-stress, 0.5 μM TSA, five days, control 0.5%",up to 1%
same,"Type I classical embryogenic structures, abundance","[1]; heat-stress, ten times lower concentration of TSA than 0.5 μM",much more abundant
same,percentage of sporophytic divisions versus control at lower temperature,[1]; microspore cultures at 18 or 25° C.,increased percentage of sporophytic divisions
same,total amount of histone H3 and H4,"histone H3 and H4; 0.5 μM TSA, eight hours",no clear effect
same,sporophytic divisions compared to untreated controls,"histone H3 and H4; 0.5 μM TSA, eight hours at 18° C. and 33° C., divisions at day 5",greatly enhanced
same,level of histone H3 and H4 acetylation relative to control,"histone H3 and H4; 0.5 μM TSA, eight hours, 18° C. and 33° C.",increased dramatically
same,acetylation of small molecular weight proteins in the range of 10-25 kDa,histone H3 and H4; 8-hour heat-stress plus TSA versus heat-stressed control,Increased protein acetylation
same,number of embryogenic cells compared to the control,[2]; 10-day-old cultures,enhances
same,embryo yield (embryos per bud) compared to the control,[2]; 45-day-old cultures,enhances
